# From patent publication US20140194506A1, “Use of Potassium Piperonyl Pentadienoate for Lowering Blood Lipid” (INNER MONGOLIA UNIVERSITY, priority 2011, published 2014)
# Where “and” joins values, the source holds several entries; their conditions need not be identical. Equal values may be shown once.
# Assays:
# [1] = test system: high lipid mode white rats; experiment: Therapeutic blood lipid lowering in hyperlipoidemia mode white rats (Example 3); assay type: in vivo, Wistar male white rats
# From the text: High lipid feed formula: cholesterol 3%, lard 10%, sodium cholate 0.5%, basal feed: 86.5% (formula: flour 17.14%, rice flour 8.57%, maize 17.14%, bran 21%, fish flour 1.71%, dairy salt 0.857%, vitamin 0.085%, bean material 17.14%).
# 72 Wistar white male rats of 170±10 g of body weight were divided into 6 groups randomly and numbered. Each group included 12 rats. The rats were fed with common standard feed under experimental conditions and observed for 7 days, and its blood was sampled from tail for testing serum total cholesterol (TC). […] From the 8th day, the group I was set as a blank group, and was fed with common standard feed. Other groups were fed with high lipid feed for 8 days in a row, and the blood was sampled from tail on the next day for testing TC. […] The rats then were divided into 5 groups randomly (see table 12) according to TC levels. Each group included 10 rats (10 rats who were unsuccessful blood lipid modes were discarded). The rats were ted with high lipid teed continuously. Group was a high lipid feed mode control group. Group III was a Simvastatin 10 mg/kg group. Group IV was a GB-O group. Group V was a GB-H group. Group VI was a GB-K group. The high lipid feed mode control group was fed with high lipid feed together with distilled water. Groups III, IV, V, and VI were fed with high lipid feed together with required simvastatin, GB-O, GB-H, and GB-K suspensions (formulated by grinding with 0.5% sodium carboxymethycellulose CMC-Na) respectively. The dosing amount was 0.046 mmol/kg, and the amount of high lipid feed was 20 g per day for each rat. The grouping and the dosing amount for each group can be found in table 13.
# (§1) The body weights of white rats were determined and recorded every day. The rats for each group were dosed basing, on its body weight by feeding for 14 days at 22° C. of room temperature and 40-50% of relative humidity. On the 14th day, after fasting and freely receiving water for 16 hours, the blood was sampled from aorta, placed for 30 min to blood coagulate, centrifugated for 15 min at 3000 r/min to separate serum. The values of serum total cholesterol (TC), and triglyceride (TG) were determined on an automatic analyzer using enzymatic colorimetry, the value of high density lipoprotein cholesterol (HDL) was determined using a phosphotungstic acid-Mg precipitation method, and the value of low density lipoprotein cholesterol (LDL) was determined using a polyvinyl sulfate precipitation method.
# (§2) All data were treated statistically, and are presented as means standard deviations (x±s). The significance of difference was judged by T test. The calculation of p value was obtained by comparing the high lipid mode group with the blank control group, and comparing other test drug groups with the high lipid mode group.
# The reaction temperature was 37° C. The cholesterol ester in serum was first hydrolyzed into free cholesterol (FC) and fatty acid with cholesterol ester hydrolase (CEH.) Then, all FC in serum was oxidized into ch-4-en-3-one and H2O2) with cholesterol oxidase (COD). The resulting H2O2, was reacted with 4-aminoantipyrine (4-AAP) and 4-chlorophenol in the presence of peroxidase (POD) (Trinder reaction), to yield red quinine imine, which was colarimetrically tested at 500 nm wavelength.
# The reaction temperature was 37° C. The triglyceride in serum was first hydrolyzed into glycerol and fatty acid with lipoprotein lipase (LPL). The resulting glycerol was reacted with ATP in the presence of glycerol kinase (GK), to produce glycerol-3-phosphate and ADP. The resulting glycerol-3-phosphate was oxidized into dihydroxyacetone phosphate and H2O2 with oxygen in the presence of glycerol phosphate oxidase (GPO). […]
# [2] = test system: high lipid mode white rats; experiment: Prophylactic blood lipid lowering in high lipid feed white rats (Example 2); assay type: in vivo, Wistar male white rats
# From the text: High lipid feed formula: cholesterol 3%, lard 10%, sodium cholate 0.5%, basal feed: […] (formula: flour 17.14%, rice flour 8.57%, maize […], bran 21%, fish flour 1.71%, dairy salt 0.857%, vitamin 0.085%, bean material 17.14%).
# 60 Wistar White male rats of 150±10 g of body weight were fed with common standard feed for 5 days, and then divided into 6 groups randomly. Each group included 10 rats. Group I was a blank group, where the rats were fed with common standard feed. Group II was a high lipid feed mode control group. Group III was a Simvastatin 10 mg/kg group. Group IV was a GB-O group. Group V was a GB-H group. Group VI was a GB-K group. High lipid feed mode control group were fed with high lipid feed together with distilled water. Groups III, IV, V, and VI were fed with high lipid feed together with required simvastatin, GB-O, GB-H, and GB-K suspensions (formulated by grinding with 0.5% sodium […] CMC-Na) respectively. The dosing amount was 0.046 mmol/kg, and the amount of high lipid feed was 20 g per day for each rat. The grouping and the dosing amount for each group can be found in table 1.
# as §1, with “The rats in each group” for “The rats for each group”, “were dosed basing on its” for “were dosed basing, on its”, “16 hours, its blood was” for “16 hours, the blood was”, “blood coagulate, and centrifugated for” for “blood coagulate, centrifugated for”, “determined using the polyvinyl sulfate” for “determined using a polyvinyl sulfate”
# as §2, with “were” for “are”, “means±standard” for “means standard”
# The reaction temperature was 37° C. The cholesterol ester in serum was first hydrolyzed into free cholesterol (FC) and fatty acid with cholesterol ester hydrolase (CEH). Then, all FC in serum was oxidized into ch-4-en-3-one and H2O2 with cholesterol oxidase (COD). The resulting H2O2 was reacted with 4-aminoantipyrine (4-AAP) and 4-chlorophenol in the presence of peroxidase (POD) (Trinder reaction), to yield red quinine imine, which was calorimetrically tested at a 500 nm wavelength.
# The reaction temperature was 37° C. The triglyceride ire serum was first hydrolyzed into glycerol and fatty acid with lipoprotein lipase (LPL). The resulting glycerol was reacted with ATP in the presence of glycerol kinase (GK), to produce glycerol-3-phosphate and ADP. The resulting glycerol-3-phosphate was oxidized into dihydroxyacetone phosphate and H2O2 with oxygen in the presence of glycerol phosphate oxidase (GPO). The resulting H2O2 was reacted with 4-aminoantipyrine (4-AAP) and 4-chlorophenol in the presence of peroxidase (POD) (Trinder reaction), to yield red quinine imine, which was colorimetrically determined at a 500 nm wavelength.
# The LDL in serum was precipitated using PVS. The serum TC and the Ch in the resulting supernatant were determined using the enzymatic methods described hereinabove, and the LDL-C was calculated by subtracting the Ch from the serum TC. The polyethylene glycol monoether (PEGME) was added in a suitable amount in order to facilitate the precipitation of LDL. […]
# [3] = group mean n=10, 15th day after administration
# [4] = rats No. 1-10, 0.046 mmol/kg (Simvastatin 10 mg/kg), 15th day after administration
smiles,measurement,setting,value
CCC(C)(C)C(=O)O[C@H]1C[C@@H](C)C=C2C=C[C@H](C)[C@H](CC[C@@H]3C[C@@H](O)CC(=O)O3)[C@H]21 [Simvastatin],Total cholesterol value,"[1]; Table 18, mean ± standard deviation, n=10",9.59 ± 1.50
same,Triglyceride value,"[1]; Table 19, mean ± standard deviation, n=10",2.62 ± 0.54 mmol/L
same,Low density lipoprotein cholesterol,"[1]; Table 20, mean ± standard deviation, n=10",2.90 ± 0.67 mmol/L
same,High density lipoprotein cholesterol,"[1]; Table 21, mean ± standard deviation, n=10",0.75 ± 0.20 mmol/L
same,"serum high density lipoprotein cholesterol (HDL) contents, Mean",[1]; [3],0.75 mmol/L
same,"serum low density lipoprotein cholesterol (LDL) contents, Mean",[1]; [3],2.90 mmol/L
same,"serum total cholesterol (TC) contents, Mean",[1]; [3],9.59 mmol/L
same,"serum triglyceride (TG) contents, Mean",[1]; [3],2.62 mmol/L
same,"serum high density lipoprotein cholesterol (HDL) contents, individual rats",[1]; [4],1.11 mmol/L and 0.93 mmol/L and 0.58 mmol/L and 0.67 mmol/L and 0.37 mmol/L and 0.81 mmol/L and 0.77 mmol/L and 0.92 mmol/L and 0.66 mmol/L and 0.72 mmol/L
same,"serum low density lipoprotein cholesterol (LDL) contents, individual rats",[1]; [4],2.51 mmol/L and 2.84 mmol/L and 2.67 mmol/L and 3.38 mmol/L and 1.97 mmol/L and 2.37 mmol/L and 3.71 mmol/L and 4.12 mmol/L and 3.12 mmol/L and 2.36 mmol/L
same,"serum triglyceride (TG) contents, individual rats",[1]; [4],1.95 mmol/L and 3.67 mmol/L and 2.38 mmol/L and 2.08 mmol/L and 2.27 mmol/L and 3.27 mmol/L and 2.67 mmol/L and 2.36 mmol/L and 2.68 mmol/L and 2.96 mmol/L
same,"serum total cholesterol (TC) contents, individual rats","[1]; rats No. 1-10, hyperlipoidemia mode, drug 14 days, 0.046 mmol/kg (Simvastatin 10 mg/kg), 15th day after administration",7.61 mmol/L and 9.38 mmol/L and 8.81 mmol/L and 8.39 mmol/L and 12.67 mmol/L and 10.34 mmol/L and 9.37 mmol/L (2×) and 8.61 mmol/L and 11.34 mmol/L
same,Total cholesterol value,"[2]; Table 6, mean ± standard deviation, n=10",13.88 ± 3.27
same,Triglyceride value,"[2]; Table 7, mean ± standard deviation, n=10",1.22 ± 0.1841 mmol/L
same,Low density lipoprotein cholesterol,"[2]; Table 8, mean ± standard deviation, n=10",4.223 ± 0.9989 mmol/L
same,High density lipoprotein cholesterol,"[2]; Table 9, mean ± standard deviation, n=10",0.331 ± 0.0767 mmol/L
same,"serum total cholesterol (TC) contents, Mean","[2]; group mean n=10, 0.046 mmol/kg (Simvastatin 10 mg/kg), 15th day after administration",13.88 mmol/L
same,"serum high density lipoprotein cholesterol (HDL) contents, Mean",[2]; [3],0.33 mmol/L
same,"serum low density lipoprotein cholesterol (LDL) contents, Mean",[2]; [3],4.22 mmol/L
same,"serum triglyceride (TG) contents, Mean",[2]; [3],1.22 mmol/L
same,"serum high density lipoprotein cholesterol (HDL) contents, individual rats",[2]; [4],0.26 mmol/L and 0.29 mmol/L and 0.31 mmol/L (2×) and 0.47 mmol/L and 0.39 mmol/L and 0.24 mmol/L and 0.33 mmol/L and 0.43 mmol/L and 0.28 mmol/L
same,"serum low density lipoprotein cholesterol (LDL) contents, individual rats",[2]; [4],5.81 mmol/L and 4.98 mmol/L and 5.32 mmol/L and 3.73 mmol/L and 5.14 mmol/L and 3.99 mmol/L and 3.33 mmol/L and 3.37 mmol/L and 3.63 mmol/L and 2.93 mmol/L
same,"serum triglyceride (TG) contents, individual rats",[2]; [4],1.12 mmol/L and 1.53 mmol/L and 0.93 mmol/L and 1.36 mmol/L and 1.26 mmol/L and 1.00 mmol/L and 1.19 mmol/L and 1.23 mmol/L and 1.31 mmol/L and 1.28 mmol/L
same,"serum total cholesterol (TC) contents, individual rats","[2]; rats No. 1-10, high lipid feed plus drug 14 days, 0.046 mmol/kg (Simvastatin 10 mg/kg), 15th day after administration",19.21 mmol/L and 14.11 mmol/L and 12.51 mmol/L and 11.11 mmol/L and 9.19 mmol/L and 11.57 mmol/L and 10.31 mmol/L and 15.62 mmol/L and 13.60 mmol/L and 18.06 mmol/L
